pEC50, pIC50: −log10 of the molar value.
Tested on: HFF
Test: Compound was evaluated for CPE inhibition using anti-HCMV assay in AD169 strain infected HFF cells
Assay type: functional, cell-based
Conditions: Homo sapiens

Compound: Nc1nc(O)c2ccn(C3C=CC(CO)C3)c2n1 (configuration not stated)
- pEC50: 3.46
- pIC50: < 3.39

— ChEMBL document CHEMBL1126351, “()-7-deazacarbovir as a compound with potential anti-hiv and anti-hcmv properties” (Bioorg Med Chem Lett, 1992)
